In ChEMBL document CHEMBL4177724, “Effect of side chain hydrophobicity and cationic charge on antimicrobial activity and cytotoxicity of helical peptoids” (Bioorg Med Chem Lett, 2018):
Converted amounts (≈) assume the structure as drawn. Non-standard residues stand in square brackets, D forms with d. Residues, ends and D or L forms follow the SMILES beside them. Nspe = C[C@H](NCC(=O)O)c1ccccc1; Nlys = NCCCCNCC(=O)O

Columns and labels:
Escherichia coli = assay: Antibacterial activity against Escherichia coli then incubated at 37 degC for 24 hrs by broth dilution assay; type: functional
Bacillus subtilis = assay: Antibacterial activity against Bacillus subtilis then incubated at 37 degC for 24 hrs by broth dilution assay; type: functional
[1] = Cytotoxicity against human Jurkat cells assessed as reduction in cell viability incubated for 24 hrs by MTS assay; type: cell-based; conditions: read-out: LC50
[2] = (§1) Induction of hemolysis in Sprague-Dawley rat erythrocytes incubated at 37 degC for 60 mins by spectrophotometry; type: cell-based, Erythrocyte; conditions: Sprague-Dawley, erythrocytes, read-out: HD50
Erythrocyte = assay: as §1; type: cell-based; conditions: erythrocyte, 1 h
[3] = Induction of hemolysis in Sprague-Dawley rat erythrocytes at 200 uM incubated at 37 degC for 60 mins by spectrophotometry; type: cell-based, Erythrocyte; conditions: read-out: Activity
[4] = Cytotoxicity against human LNCAP cells assessed as reduction in cell viability incubated for 24 hrs by MTS assay; type: cell-based; conditions: read-out: LC50
[5] = Cytotoxicity against human MRC5 cells assessed as reduction in cell viability incubated for 24 hrs by MTS assay; type: cell-based; conditions: read-out: LC50

Compound | MIC (Escherichia coli) [µM] | MIC (Bacillus subtilis) [µM] | CC50 at 24 h [1] [µM] | HC50 at 1 h [2] [µM] | HD10 (Erythrocyte) [µM] | hemolysis at 1 h, 200 µM [3] [%] | CC50 at 24 h [4] [µM] | CC50 at 24 h [5] [µM]
C[C@@H](c1ccc(F)cc1)N(CC(N)=O)C(=O)CN(C(=O)CN(CCCCN)C(=O)CN(C(=O)CN(C(=O)CN(CCCCN)C(=O)CN(C(=O)CN(C(=O)CN(CCCCN)C(=O)CN(C(=O)CN(C(=O)CNCCCCN)[C@@H](C)c1ccc(F)cc1)[C@@H](C)c1ccc(F)cc1)[C@@H](C)c1ccc(F)cc1)[C@@H](C)c1ccc(F)cc1)[C@@H](C)c1ccc(F)cc1)[C@@H](C)c1ccc(F)cc1)[C@@H](C)c1ccc(F)cc1 | 3.1 (≈ 6.09 µg/mL) | 0.4 (≈ 0.785 µg/mL) | 2.47 | < 6.25 | < 6.25 | 100 | 9.5 | 9.5
C[C@@H](c1ccc(Cl)cc1)N(CC(N)=O)C(=O)CN(C(=O)CN(CCCCN)C(=O)CN(C(=O)CN(C(=O)CN(CCCCN)C(=O)CN(C(=O)CN(C(=O)CN(CCCCN)C(=O)CN(C(=O)CN(C(=O)CNCCCCN)[C@@H](C)c1ccc(Cl)cc1)[C@@H](C)c1ccc(Cl)cc1)[C@@H](C)c1ccc(Cl)cc1)[C@@H](C)c1ccc(Cl)cc1)[C@@H](C)c1ccc(Cl)cc1)[C@@H](C)c1ccc(Cl)cc1)[C@@H](C)c1ccc(Cl)cc1 | > 6.1 | 6.1 (≈ 12.8 µg/mL) | 1.58 | 10.4 | < 6.25 | 100 | 10 | 3
Cc1ccc([C@H](C)N(CC(N)=O)C(=O)CN(C(=O)CN(CCCCN)C(=O)CN(C(=O)CN(C(=O)CN(CCCCN)C(=O)CN(C(=O)CN(C(=O)CN(CCCCN)C(=O)CN(C(=O)CN(C(=O)CNCCCCN)[C@@H](C)c2ccc(C)cc2)[C@@H](C)c2ccc(C)cc2)[C@@H](C)c2ccc(C)cc2)[C@@H](C)c2ccc(C)cc2)[C@@H](C)c2ccc(C)cc2)[C@@H](C)c2ccc(C)cc2)[C@@H](C)c2ccc(C)cc2)cc1 | > 6.1 | 0.8 (≈ 1.55 µg/mL) |  | 8.3 | < 6.25 | 100 | 12 | 8
C[C@@H](c1ccccc1)N(CC(=O)N(CCCCN)CC(=O)N(CC(=O)N(CC(=O)N(CCCCN)CC(=O)N(CC(=O)N(CC(=O)N(CCCCN)CC(N)=O)[C@@H](C)c1ccccc1)[C@@H](C)c1ccccc1)[C@@H](C)c1ccccc1)[C@@H](C)c1ccccc1)C(=O)CN(C(=O)CNCCCCN)[C@@H](C)c1ccccc1 (H-[Nlys][Nspe][Nspe][Nlys][Nspe][Nspe][Nlys][Nspe][Nspe][Nlys]-NH2) | 1.6 (≈ 2.4 µg/mL) | 0.8 (≈ 1.2 µg/mL) | 28.9 | > 200 | > 200 | 9.8 |  | 80.5
C[C@@H](c1ccccc1)N(CC(N)=O)C(=O)CN(C(=O)CN(CCCCN)C(=O)CN(C(=O)CN(C(=O)CN(CCCCN)C(=O)CN(C(=O)CN(C(=O)CN(CCCCN)C(=O)CN(C(=O)CN(C(=O)CNCCCCN)[C@@H](C)c1ccccc1)[C@@H](C)c1ccccc1)[C@@H](C)c1ccccc1)[C@@H](C)c1ccccc1)[C@@H](C)c1ccccc1)[C@@H](C)c1ccccc1)[C@@H](C)c1ccccc1 (H-[Nlys][Nspe][Nspe][Nlys][Nspe][Nspe][Nlys][Nspe][Nspe][Nlys][Nspe][Nspe]-NH2) | 1.6 (≈ 2.91 µg/mL) | 0.8 (≈ 1.46 µg/mL) | 2.21 | 63.4 | 9.1 | 100 | 5 | 8
C[C@@H](c1ccccc1)N(CC(=O)N(CCCCN)CC(=O)N(CC(=O)N(CC(=O)N(CCCCN)CC(=O)N(CC(=O)N(CC(=O)N(CCCCN)CC(=O)N(CC(=O)N(CC(=O)N(CCCCN)CC(N)=O)[C@@H](C)c1ccccc1)[C@@H](C)c1ccccc1)[C@@H](C)c1ccccc1)[C@@H](C)c1ccccc1)[C@@H](C)c1ccccc1)[C@@H](C)c1ccccc1)C(=O)CN(C(=O)CNCCCCN)[C@@H](C)c1ccccc1 (H-[Nlys][Nspe][Nspe][Nlys][Nspe][Nspe][Nlys][Nspe][Nspe][Nlys][Nspe][Nspe][Nlys]-NH2) | 1.6 (≈ 3.12 µg/mL) | 0.4 (≈ 0.779 µg/mL) | 5.04 | > 200 | 19.5 | 48.1 |  | 10
C[C@H](c1ccccc1)N(CC(N)=O)C(=O)CN(C(=O)CN(CCCCN)C(=O)CN(C(=O)CN(C(=O)CN(CCCCN)C(=O)CN(C(=O)CN(C(=O)CNCCCCN)[C@H](C)c1ccccc1)[C@@H](C)c1ccccc1)[C@H](C)c1ccccc1)[C@@H](C)c1ccccc1)[C@H](C)c1ccccc1 (stereo in doubt) | 3.1 (≈ 4.24 µg/mL) | 1.6 (≈ 2.19 µg/mL) | 18.6 | > 200 | 119.5 | 38.7 | 27 | 40
CC[C@H](C)[C@H](NC(=O)CN)C(=O)NCC(=O)N[C@@H](CCCCN)C(=O)N[C@@H](Cc1ccccc1)C(=O)N[C@@H](CC(C)C)C(=O)N[C@@H](CCCCN)C(=O)N[C@@H](CCCCN)C(=O)N[C@@H](C)C(=O)N[C@@H](CCCCN)C(=O)N[C@@H](CCCCN)C(=O)N[C@@H](Cc1ccccc1)C(=O)NCC(=O)N[C@@H](CCCCN)C(=O)N[C@@H](C)C(=O)N[C@@H](Cc1ccccc1)C(=O)N[C@H](C(=O)N[C@@H](CCCCN)C(=O)N[C@H](C(=O)N[C@@H](CC(C)C)C(=O)N[C@@H](CCCCN)C(=O)N[C@@H](CCCCN)C(N)=O)[C@@H](C)CC)C(C)C [PEXIGANAN] (H-GIGKFLKKAKKFGKAFVKILKK-NH2) | 0.8 (≈ 1.98 µg/mL) | 0.4 (≈ 0.991 µg/mL) |  | > 200 | 113.4 | 21.5 |  | 21.2
